Data published in patent publication US20080103209A1, “Compounds And Methods For Treating Non-Inflammatory Pain Using Ppar Alpha Agonists” (The Regents of The University of California, priority 2004, published 2008).

Assays:
Swiss mice = experiment: Sciatic nerve ligation neuropathy, mechanical and thermal hyperalgesia; assay type: in vivo, mouse; settings: for mechanical and thermal pain thresholds in the non-ligated paw of neuropathic mice: data not shown; for neuropathic hypersensitivity (mechanical and thermal pain thresholds), ligated limb: single s.c. dose day 7 and 14 after surgery, 60 min before test, PEA, GW7647 30 mg-kg^−1, gabapentin 60 mg-kg^−1
Description: To examine whether PPARα agonists modulate the persistent pain hypersensitivity associated with nerve injury, peripheral neuropathy was produced in mice by partially ligating the left sciatic nerve, a surgical procedure that results in the development of mechanical and thermal hyperalgesia in the operated limb (Bennett et al., Pain, 33, 87 (1988)).
Sciatic nerve ligation was performed essentially following the method of Bennett and Xie (Bennett et al., Pain 33, 87 (1988)). Briefly, male Swiss mice were anesthetized with sodium pentobarbital, the left sciatic nerve was exposed at mid-thigh level through a small incision and one-third to one-half of the nerve thickness was tightly ligated with a silk thread. The wound was closed with a single muscle suture and skin clips, and dusted with streptomycin powder. In sham-operated animals, the nerve was exposed but not ligated.
Mechanical hyperalgesia was determined by measuring paw withdrawal thresholds to an increasing pressure onto the dorsal surface of the paw using an analgesimeter (Ugo Basile, Italy) with a cut-off of 250 g. Withdrawal thresholds were measured on both the ipsilateral paw (inflamed or ligated) and contralateral paw (uninflamed or unligated) 60 min after subcutaneous drug administration.
Thermal hyperalgesia was assessed by the methods of Hargreaves (Hargreaves et al., Pain, 32, 77 (1988)) by measuring the latency to withdraw the hind paws from a focussed beam of radiant heat applied to the plantar surface, using an appropriate apparatus (Ugo Basile, Italy). The cut-off time was set at 30 sec. The mice were habituated to the apparatus for 10-15 min two days prior to the experiment.

mice [1] = experiment: Formalin-evoked pain behavior (hind paw licking); assay type: in vivo, mouse; settings: for early and late phase formalin-evoked nociception, combination with anandamide: 0.1 μg/paw of each; for anti-inflammatory effect (paw weight) after formalin: 50 μg/paw, 45 minutes after intraplantar formalin, C57BL/6J mice
Description: Administration of formalin into the mouse hind paw evokes a pain behavior consisting of two temporally distinct phases of licking and flexing of the injected limb (Dubuisson, et al., Pain 4, 161-74 (1977)). The first phase, which starts immediately after formalin injection and lasts 5-10 min, is due to activation of nociceptive fibers and is accompanied by the local release of nitric oxide and adenosine [Dickenson, et al., Neurosci Lett 83, 207-11 (1987); Omote, et al., Brain Res 787, 161-4 (1998); Omote et al., 2000; Liu, et al., J Neurochem 80, 562-70 (2002)]. Following a quiescent interval of 10-15 minutes, a second phase of nociceptive behavior appears, which is associated with local inflammation [Rosland, et al., Pain 42, 235-42 (1990)] and central sensitization [Coderre, et al., J Neurosci 12, 3665-70 (1992)]. […] (2001); Farquuar-Smith, 2002]. […] The effects of PEA in C57BL/6J mice in which the PPARα gene had been deleted by homologous recombination (PPARα^−/−)[Lee, et al., Mol Cell Biol 15, 3012-22 (1995)] were examined to determine whether PPARα contributes to these properties.
Although PPARα is known to regulate the inflammatory response [Devchand, et al., Nature 384, 39-43. (1996); Cabrero, et al., Curr Drug Targets Inflamm Allergy 1, 243-8 (2002); Berger, et al., Annu Rev Med 53, 409-35 (2002); Chinetti, et al., Inflamm Res 49, 497-505 (2000)], its roles in the modulation of acute nociceptive pain remain unexplored. A series of structurally diverse PPAR-α agonists were tested for their ability to reduce pain behavior in an animal model of chemical tissue damage. Injection of formalin into the mouse hind paw evokes a nocifensive behavior consisting of two distinct phases. The first phase results from direct activation of nociceptive fibers and starts immediately after formalin administration, while the second phase develops over a period of approximately 60 min and is associated with local inflammation and central sensitization.
Mice received intraplantar injections of formalin (5% vol/vol, 10 μl) in saline containing polyethylene glycol (5%) and Tween 80 (5%). The duration of paw licking was monitored by an observer for periods of 0-15 min (early or first phase) and 15-45 min (late or second phase) immediately after formalin administration.
Formalin test. Formalin (5%, 10 μl)-induced paw licking was monitored for 0-15 min (first phase) and 15-45 min (second phase) as described (Calignano, et al., Nature 394, 277-81 (1998).

mice [2] = experiment: TPA-induced ear edema (irritant contact dermatitis); assay type: in vivo, mouse
Excerpt: In addition to rapid-onset analgesia, PEA also exerts prolonged anti-inflammatory effects [Benvenuti, et al., Boll Soc It Biol Sper 44, 809-813 (1968); Lambert, et al., Curr Med. Chem. 9, 663-74 (2002)], which are associated with the down-regulation of pro-inflammatory proteins such as nitric oxide synthase (NOS) [Costa, et al., Br J Pharmacol 137, 413-20. (2002)]. Two models of acute inflammation were used to examine whether such effects are mediated through PPARα. First, paw edema was induced in C57B16J wild-type and PPARα^−/− mice by local injection of the irritant, carrageenan [Cirino, et al., Eur J Pharmacol 166, 505-10 (1989)]. […] Next, ear edema was produced in CD1 mice by topical administration of the phorbol ester, 12-O-tetradecanoylphorbol-13-acetate (TPA) [Sheu, et al., J Invest Dermatol., 94-101. (2002)]. […] In a parallel set of experiments, the effects of PEA (20 μg) on TPA-induced edema were tested in C57B16J wild-type and PPARα^−/− mice. […] Together, these findings indicate that PEA reduces acute nociception and inflammation through activation of PPARα.
As previous described procedure [Sheu, et al., J Invest Dermatol., 94-101. (2002)], 12-O-tetradecanoylphorbol-13-acetate (TPA) was dissolved in acetone (0.03%, w v^−1) and topically delivered with a pipette to the inner and outer surfaces (10 μl/side) of mice ears. Experimental agents were dissolved in acetone and delivered topically (20 μl/side) 45 minutes and 4 hours after TPA. 18 hours after TPA administration, the mice were euthanized with CO2 and the ears punched (diameter=2 mm) four times. The 4 excised punches of skin were combined and weighed to assess edema.

C57BL6/J mice = experiment: TPA-induced edema of abdominal skin, topical administration; assay type: in vivo, mouse; settings: PEA 450 μg, GW7647 755 μg
PPARα mRNA = PPARα mRNA expression in inflamed mouse skin; assay type: in vivo; settings: topical to inflamed abdominal skin; PEA 450 μg, GW7647 755 μg
human CB2 = target: T1, human CB2 (Homo sapiens, UniProt P34972); experiment: CB2 receptor binding, [3H]-WIN-55212-2 displacement in CB2-overexpressing CHO cell membranes
T1 construct: purchased Perkin-Elmer, Boston, Mass; host or cells: CHO cells (membranes)
T1 sequence (P34972 whole entry): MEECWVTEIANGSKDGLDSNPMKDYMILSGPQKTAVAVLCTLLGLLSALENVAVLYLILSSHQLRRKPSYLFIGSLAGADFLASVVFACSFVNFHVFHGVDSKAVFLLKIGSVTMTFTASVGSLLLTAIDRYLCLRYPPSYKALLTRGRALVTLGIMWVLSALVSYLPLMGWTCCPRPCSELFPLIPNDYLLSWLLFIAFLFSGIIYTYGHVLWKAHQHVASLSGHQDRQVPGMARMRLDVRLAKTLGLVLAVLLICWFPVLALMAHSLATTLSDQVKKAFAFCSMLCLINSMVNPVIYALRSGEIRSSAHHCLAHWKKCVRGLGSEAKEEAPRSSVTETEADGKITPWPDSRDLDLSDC

[3] = topical co-application, CD1 mice

Row | Structure (SMILES) | mechanical and thermal pain thresholds in the non-ligated paw of neuropathic mice (Swiss mice) | neuropathic hypersensitivity (mechanical and thermal pain thresholds), ligated limb (Swiss mice) | early and late phase formalin-evoked nociception, combination with anandamide (mice [1]; Swiss mice) | anti-inflammatory effect (paw weight) after formalin (mice [1]) | formalin pain in PPARα−/− mice (mice [1]; 50 μg i.pl.) | first- and second-phase nociception (mice [1]; Swiss mice, i.pl. together with formalin, GW7647 0.1-50 μg, Wy-14643 50-200 μg, fenofibric acid 100-400 μg) | average half-maximal effective dose (ED50) to reduce first-phase pain (mice [1]; intraplantar with formalin, Swiss mice, ten experiments) | anti-inflammatory activity on TPA-induced edema in PPARα−/− mice (mice [2]; PPARα−/− mice) | TPA-induced ear edema formation (mice [2]; [3]) | TPA-induced edema of abdominal skin (C57BL6/J mice) | PPARα mRNA expression (PPARα mRNA) | [^3H]-WIN-55212-2 Binding (% of control) (human CB2; Concentration 1 μM) | [^3H]-WIN-55212-2 Binding (% of control) (human CB2; Concentration 10 μM) | mechanical sensitivity thresholds after repeated dosing, vs vehicle-treated mice (Swiss mice; 30 mg-kg^−1 s.c. once a day for 14 consecutive days from surgery) | dose dependence of antihyperalgesic response (mechanical withdrawal, day 14) (Swiss mice; s.c.) | ED50 of antinociceptive effect in the formalin model (mice [1]; i.pl.) | phase I and II formalin pain in wild-type mice (mice [1]; wild-type C57BL6 mice, 50 μg i.pl.) | TPA-induced edema in wild-type and PPARα−/− mice (mice [2]; PEA 20 μg, C57Bl6J wild-type and PPARα−/− mice) | ED50, TPA-induced ear edema (mice [2]; topical co-application, CD1 mice, n=5)
1 | CC(C)(Sc1ccc(CCN(CCCCC2CCCCC2)C(=O)NC2CCCCC2)cc1)C(=O)O [GW7647] | did not affect | mimicked | Mimicry of this synergism | absence of anti-inflammatory effects | failed to respond | attenuated first- and second-phase nociception in a dose-dependent manner | 9.9 µg | residual, albeit weak anti-inflammatory activity | attenuated | attenuated TPA-induced edema | increase in PPARα mRNA expression | 102.1 ± 4.0 % of control | 91.6 ± 4.1 % of control | – | – | – | – | – | –
2 | CCCCCCCCCCCCCCCC(=O)NCCO [PEA, palmitoylethanolamide] | did not affect | reversal of neuropathic hypersensitivity | synergistically inhibit | absence of anti-inflammatory effects | absent | – | – | – | attenuated | attenuated TPA-induced edema | increase in PPARα mRNA expression | 106.2 ± 2.5 % of control | 98.5 ± 4.2 % of control | significantly higher | dose-dependent | 7.4 µg | attenuated these responses only in wild-type animals | effective only in wild-type animals | 8.9 μg per ear
